According to PubChem BioAssay AID1963986 (Molecular Pharmacology Branch, DTP, NCI, 2024):

Test system: 171881-019-R-J1-PDC tumor spheroid viability
Assay: Anticancer human tumor 171881-019-R-J1-PDC patient-derived invasive breast carcinoma cell line growth inhibition [PI3K]
Settings: spheroids with HUVEC and MSC; for IC50: curve of first compound; for viability, T/C: stronger effect = lower value
In short: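 Combination activity was assessed by viability in multicellular tumor spheroids carrying HUVEC and MSC components. Agents were tested with PI3K inhibitors from a Cmax-based top dose (or 10 microM) downward in half-log increments.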
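Also: spheroids exposed to compound for 7 days before viability read.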
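For viability, T/C in this document: 100% = DMSO vehicle-treated spheroids.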

With `Cn1cnc2c(F)c(Nc3ccc(Br)cc3Cl)c(C(=O)NOCCO)cc21` + CC(Nc1ccc2c(c1)OCCn1cc(N3C(=O)OCC3C(F)F)nc1-2)C(N)=O the IC50 (second compound 0.00316 µM) was 422 nM, the IC50 (second compound 0.01 µM) was 71 nM and the IC50 (second compound 0.0316 µM) was < 9.49 nM. The IC50 (second compound 0.1 µM) was < 9.49 nM, the IC50 (second compound 0.316 µM) was < 9.49 nM and the IC50 (second compound 1 µM) was < 9.49 nM. The viability, T/C (second compound 0.00316 µM, first compound 0.00949 µM) was 63.8%, the viability, T/C (second compound 0.00316 µM, first compound 0.03 µM) was 71.5% and the viability, T/C (second compound 0.00316 µM, first compound 0.0949 µM) was 64.9%. For the same compound, the viability, T/C (second compound 0.00316 µM, first compound 0.3 µM) was 56.4%, the viability, T/C (second compound 0.00316 µM, first compound 0.949 µM) was 34.3% and the viability, T/C (second compound 0.00316 µM, first compound 3 µM) was 15.4%. For the same compound, the viability, T/C (second compound 0.01 µM, first compound 0.00949 µM) was 60.4%, the viability, T/C (second compound 0.01 µM, first compound 0.03 µM) was 54.8% and the viability, T/C (second compound 0.01 µM, first compound 0.0949 µM) was 46.9%. The viability, T/C (second compound 0.01 µM, first compound 0.3 µM) was 40.9%, the viability, T/C (second compound 0.01 µM, first compound 0.949 µM) was 23.9% and the viability, T/C (second compound 0.01 µM, first compound 3 µM) was 10.1%. It also gave a viability, T/C (second compound 0.0316 µM, first compound 0.00949 µM) of 44.8%, a viability, T/C (second compound 0.0316 µM, first compound 0.03 µM) of 38.7% and a viability, T/C (second compound 0.0316 µM, first compound 0.0949 µM) of 33.9%. For the same compound, the viability, T/C (second compound 0.0316 µM, first compound 0.3 µM) was 26.8%, the viability, T/C (second compound 0.0316 µM, first compound 0.949 µM) was 16.4% and the viability, T/C (second compound 0.0316 µM, first compound 3 µM) was 6.34%. The viability, T/C (second compound 0.1 µM, first compound 0.00949 µM) was 30.6%, the viability, T/C (second compound 0.1 µM, first compound 0.03 µM) was 27.1% and the viability, T/C (second compound 0.1 µM, first compound 0.0949 µM) was 24.2%. It also gave a viability, T/C (second compound 0.1 µM, first compound 0.3 µM) of 17.7%, a viability, T/C (second compound 0.1 µM, first compound 0.949 µM) of 9.75% and a viability, T/C (second compound 0.1 µM, first compound 3 µM) of 2.93%. The viability, T/C (second compound 0.316 µM, first compound 0.00949 µM) was 20.9%, the viability, T/C (second compound 0.316 µM, first compound 0.03 µM) was 18.9% and the viability, T/C (second compound 0.316 µM, first compound 0.0949 µM) was 15.3%. It also gave a viability, T/C (second compound 0.316 µM, first compound 0.3 µM) of 11.7%, a viability, T/C (second compound 0.316 µM, first compound 0.949 µM) of 4.97% and a viability, T/C (second compound 0.316 µM, first compound 3 µM) of 1.75%. The viability, T/C (second compound 1 µM, first compound 0.00949 µM) was 16.9%, the viability, T/C (second compound 1 µM, first compound 0.03 µM) was 13.7% and the viability, T/C (second compound 1 µM, first compound 0.0949 µM) was 12.7%. For the same compound, the viability, T/C (second compound 1 µM, first compound 0.3 µM) was 8.33%, the viability, T/C (second compound 1 µM, first compound 0.949 µM) was 2.91% and the viability, T/C (second compound 1 µM, first compound 3 µM) was 1.25%.
